US12667572B2, “Tricyclic compounds useful in the treatment of cancer, autoimmune and inflammatory disorders” (SCHRÖDINGER, INC., priority 2021, dated 2026)

Legend:
[1] = tested on: IL10 secretion in OCI-LY10 cells; assay: Human IL10 secretion assay, Assay 1 (HTRF); format: cell-based; details: 24 h incubation, read-out: IL-10 Secretion IC50 [nM] Assay 1
Procedure: IL10 is one of the cytokines that are regulated via activation of NF-kB signaling. For example, in ABC-DLBCL cell lines, the activated NF-kB signaling leads to increased IL10 secretion. Inhibition of NF-kB signaling has been shown leading to decreased IL10 secretion.
Assay 1: OCI-LY10 cells were seeded in IMEM supplemented with 20% fetal bovine serum at 3×10^5 cells per well in 96-well round bottom plates (Corning 3799, Corning), treated with 100 nL of 3-fold serial compound dilutions, starting at 10 mM. The final vehicle concentration was 0.1% DMSO in all wells. After 24 h incubation, the cells were transferred to 96-PCR plates (Axygen: PCR-96-FLT-C) and centrifuged, then 16 μL of cell culture media was transferred to HTRF plates and IL10 levels were measured using human IL-10 Assay Kits (Cisbio) using HTRF format. The signals were transformed to percentage of remaining activity by using the high control (HC, median of signal from wells containing cells treated with DMSO) and low control (LC, median of signal from wells with no cells). IC50 values (nM) were determined using 4-parametric curve-fitting and Hill coefficient obtained using Graph Pad Prism (Graph Pad software, Inc, USA) with non-linear regression analysis.

[2] = molecular target: T1, full-length MALT1 protein His-MALT1(1-824) (Homo sapiens, UniProt Q9UDY8); assay: MALT1 protease assay, Assay 1 (2 nM MALT1, Ac-LRSR-AMC substrate); format: biochemical; details: 2 nM MALT1, 50 μM Ac-LRSR-AMC, 2 h pre-incubation, 8 hr incubation at RT
T1 construct: full-length MALT1 protein His-MALT1(1-824); His (N); made in house; host or cells: baculovirus-infected insect cells
T1 sequence (Q9UDY8 1-824): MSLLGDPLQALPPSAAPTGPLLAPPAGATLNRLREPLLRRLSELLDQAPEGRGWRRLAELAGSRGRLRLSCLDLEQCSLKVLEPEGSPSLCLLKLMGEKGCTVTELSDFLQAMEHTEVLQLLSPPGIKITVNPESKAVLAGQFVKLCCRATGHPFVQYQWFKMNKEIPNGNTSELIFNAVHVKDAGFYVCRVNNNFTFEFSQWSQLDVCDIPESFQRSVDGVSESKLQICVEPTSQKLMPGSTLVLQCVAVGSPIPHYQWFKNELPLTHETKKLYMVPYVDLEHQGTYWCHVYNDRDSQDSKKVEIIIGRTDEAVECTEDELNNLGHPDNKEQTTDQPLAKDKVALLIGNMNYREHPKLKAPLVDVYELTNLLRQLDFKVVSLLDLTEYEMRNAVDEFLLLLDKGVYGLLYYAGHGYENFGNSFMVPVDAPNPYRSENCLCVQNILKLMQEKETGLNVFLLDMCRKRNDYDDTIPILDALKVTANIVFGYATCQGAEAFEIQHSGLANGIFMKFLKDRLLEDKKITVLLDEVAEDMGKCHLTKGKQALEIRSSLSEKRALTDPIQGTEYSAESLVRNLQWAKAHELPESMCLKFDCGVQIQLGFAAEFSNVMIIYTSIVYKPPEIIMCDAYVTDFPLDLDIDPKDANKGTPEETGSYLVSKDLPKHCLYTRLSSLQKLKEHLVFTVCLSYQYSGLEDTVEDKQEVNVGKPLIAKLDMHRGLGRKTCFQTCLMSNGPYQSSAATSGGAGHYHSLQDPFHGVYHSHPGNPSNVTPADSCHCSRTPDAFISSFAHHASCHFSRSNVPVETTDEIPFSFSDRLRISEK
Outline: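 Compounds (0.1% DMSO final) sat 2 h at RT with insect-cell-expressed His-MALT1(1-824), in 50 mM Tris pH 7.5, 600 mM sodium citrate, 1 mM DTT, 1 mM EDTA, 0.05% BSA. Cleavage of 50 μM Ac-LRSR-AMC (Km ~100 μM) ran 8 h at RT, read as AMC fluorescence. IC50 and Hill coefficient fitted to % remaining activity.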

SMILES | IC50 [1] [nM] | IC50 [2] [nM]
CC(C)(O)c1cnn(-c2ncc(NC(=O)C3CC(C)(C)c4c3cnc3cc(Cl)nn43)cc2Cl)n1 (single isomer, unassigned) [Example 23, 2-chloro-N-(5-chloro-6-(4-(2-hydroxypropan-2-yl)-2H-1,2,3-triazol-2-yl)pyridin-3-yl)-8,8-dimethyl-7,8-dihydro-6H-cyclopenta[e]pyrazolo[1,5-a]pyrimidine-6-carboxamide] | 100 to 1000 | < 10
C[C@@]1(C(F)(F)F)C[C@H](C(=O)Nc2cnc(-n3nccn3)c(Cl)c2)c2cnc3cc(Cl)nn3c21 (single isomer, unassigned) [Example 36, 2-chloro-N-(5-chloro-6-(2H-1,2,3-triazol-2-yl)pyridin-3-yl)-8-methyl-8-(trifluoromethyl)-7,8-dihydro-6H-cyclopenta[e]pyrazolo[1,5-a]pyrimidine-6-carboxamide] | 100 to 1000 | < 10
CC1(C)CC(C(=O)Nc2cnc(-n3nccn3)c(Cl)c2)c2cnc3cc(C(F)F)nn3c21 (single isomer, unassigned) [Example 25, N-(5-chloro-6-(2H-1,2,3-triazol-2-yl)pyridin-3-yl)-2-(difluoromethyl)-8,8-dimethyl-7,8-dihydro-6H-cyclopenta[e]pyrazolo[1,5-a]pyrimidine-6-carboxamide] | 100 to 1000 | 10 to 100
Cn1ccc(-c2ncc(NC(=O)C3CC(C)(C)c4c3cnc3cc(Cl)nn43)cc2Cl)n1 (single isomer, unassigned) [Example 11, 2-chloro-N-(5-chloro-6-(1-methyl-1H-pyrazol-3-yl)pyridin-3-yl)-8,8-dimethyl-7,8-dihydro-6H-cyclopenta[e]pyrazolo[1,5-a]pyrimidine-6-carboxamide] | 100 to 1000 | 10 to 100
Cc1cc2ncc3c(n2n1)C(C)(C)C[C@@H]3C(=O)Nc1cnc(-n2nccn2)c(Cl)c1 (single isomer, unassigned) [Example 6, N-(5-chloro-6-(2H-1,2,3-triazol-2-yl)pyridin-3-yl)-2,8,8-trimethyl-7,8-dihydro-6H-cyclopenta[e]pyrazolo[1,5-a]pyrimidine-6-carboxamide] | 100 to 1000 | < 10
CC1(C)C[C@H](C(=O)Nc2cnc([C@H]3CCCO3)c(Cl)c2)c2cnc3cc(Cl)nn3c21 (single isomer, unassigned) [Example 29, 2-chloro-N-(5-chloro-6-(tetrahydrofuran-2-yl)pyridin-3-yl)-8,8-dimethyl-7,8-dihydro-6H-cyclopenta[e]pyrazolo[1,5-a]pyrimidine-6-carboxamide] | 100 to 1000 | 10 to 100
C[C@]1(C(F)(F)F)C[C@H](C(=O)Nc2cnc(-n3nccn3)c(Cl)c2)c2cnc3cc(Cl)nn3c21 (single isomer, unassigned) [Example 38, 2-chloro-N-(5-chloro-6-(2H-1,2,3-triazol-2-yl)pyridin-3-yl)-8-methyl-8-(trifluoromethyl)-7,8-dihydro-6H-cyclopenta[e]pyrazolo[1,5-a]pyrimidine-6-carboxamide] | 100 to 1000 | < 10
